Results taken from patent US7214505B1, “Cell-based assay for the detection of toxic analytes” (priority 1999, dated 2007).

Tests used:
Vibrio fischeri [1] = assay: Toxicity assay with freeze-dried (stabilized) silica-based bacterial reagent vs standard Microtox reagent; type: cell-based; conditions: 10 ppm malathion; FIG. 5
Description: Stabilization of the bacteria used in the standard Microtox® test is performed by freeze-drying, and the effects of stabilization on such a bacteria-silica mixture were also investigated. A bacteria-silica mixture at a specific bacteria to silica ratio is subjected to freeze-drying at −30° C. for 6 hours under a vacuum, i.e. 0.1 hPa. Thereafter, the temperature is ramped up to +15° C. at increments of 10° C. per 15 minutes, retaining the vacuum, and then held at +15° C. for 8 hours.
Tests are then run to compare this freeze-dried mixture with the standard Microtox® freeze-dried reagent.

Vibrio fischeri [2] = assay: Modified Microtox test, toxicant adsorbed onto silica gel then added to bacterial suspension; conditions: FIGS. 1 and 2, 30 minutes incubation
Description: Briefly the Microtox® tests used for this study first involve rehydration of freeze-dried luminescent Vibrio fischeri bacteria, i.e. the Microtox® reagent.
The reconstituted bacterial suspension is added to a series dilution of sample in 2% NaCl and incubated for 15° C. for 0.5–15 minutes. The dilutions can be modified to give any desired concentration of sample, and the volume of reagent used per test can also be varied.
After incubation, bioluminescence is measured in a suitable photometer, such as a Deltatox® photometer or that in the Microtox® Model 500 Analyzer.
Data is recorded in terms of decrease luminescence over time.
Generally, these tests are carried out in the presence of an adsorbent which is referred to as using a modified Microtox® test.
In one embodiment of the invention, the solid-phase adsorbent is added to samples of toxicants and left for 30 minutes at ambient temperature. The amount of solid adsorbent and the concentrations of toxicant used are varied.
During this time, rehydration of the freeze-dried Microtox® bacteria as an aqueous suspension is performed, and it is left to stabilize at 15° C. for 15 minutes. […]
At the same time, a control sample of bacteria is monitored for comparison. […]
After 30 minutes of incubation, the bioluminescence is measured using a photometer, and data is recorded in terms of decrease of luminescence over time.

Vibrio fischeri [3] = assay: Microtox test with bacteria immobilized on silica gel (bacteria/silica mixture); type: cell-based; conditions: FIGS. 3, 4 & 5; silica gel
Description: For initial testing of such a bacteria/silica mixture, rehydration of freeze-dried luminescent Vibrio fischeri Microtox® reagent is carried out as before, and 4 aliquots are taken. One aliquot of the resultant suspension is mixed with 0.5 g of silica gel, although the amount of silica gel can be varied. After the bacteria are adsorbed onto the silica gel, the resultant mixture is used as the bioluminescent reagent in toxicity assays. Two of the other aliquots are used as controls (with and without silica gel), and the third is tested with toxicant alone.

Compound | % toxic effect with stabilized silica-based reagent compared to standard Microtox reagent (Vibrio fischeri [1]) | toxicity effect (effect on luminescence) when toxicant is adsorbed onto a solid surface, compared to aqueous toxicant (Vibrio fischeri [2]) | toxic effect of aqueous toxicant on bioluminescence with bacteria immobilized by adsorption onto a solid surface, compared to free bacteria (Vibrio fischeri [3])
CCOC(=O)CC(SP(=S)(OC)OC)C(=O)OCC (centres unmarked) [malathion] | increased | increased | enhanced
Oc1ccccc1 [phenol] |  | increased | enhanced
